What was measured:
in vivo = assay: in vivo; parameters: lethality, Dose 10 mg/kg / lethality, Dose 30 mg/kg / lethality, Dose 60 mg/kg: unit not given here; conditions: mouse, in vivo, ip; substance 60 mg/kg + D-GalN 60 mg/kg, without LPS; mice; observation 48 hours; read-out: lethality, Substance + D-GalN control
Experimental: (§1) Substances from the class of dithiazolium salts are described in their protective action by way of example in the following: in vitro in the TNF-α-mediated cytotoxicity test, and in vivo on mice which have been exposed to an endotoxin shock.
(§2) In vivo experiments on inhibition of provoked endotoxin shock were carried out on female inbred mice (F1 B6D2!). Endotoxin/lipopolysaccharide (LPS) from Salmonella abortus equi (0.1 μg/mouse) was administered intraperitoneally or intravenously in association with D-galactosamine hydrochloride (D-GalN; 60 mg/kg of bodyweight) in accordance with reports by Galanos et al. (1979, Proc. Natl. Acad. Sci. USA 76: 5939; V. Lehmann et al. 1987, J. Exp. Med. 165: 657). The substances were administered intraperitoneally one hour before inducement of the endotoxemic shock. The observation period was 48 hours.

[1] = system: endotoxemic shock in D-GalN-sensitized mice; assay: in vivo; parameters: lethality, Dose 10 mg/kg / lethality, Dose 30 mg/kg / lethality, Dose 60 mg/kg: unit not given here; conditions: LPS + D-GalN control 100, 48 hours; for lethality, Dose 10 mg/kg: 10 mg/kg i.p. one hour before LPS (0.1 μg/mouse) + D-GalN (60 mg/kg); for lethality, Dose 30 mg/kg: 30 mg/kg i.p. one hour before LPS (0.1 μg/mouse) + D-GalN (60 mg/kg); for lethality, Dose 60 mg/kg: 60 mg/kg i.p. one hour before LPS (0.1 μg/mouse) + D-GalN (60 mg/kg)
Experimental: as §1, §2

Compound	mortality at 48 h (in vivo)	lethality, Dose 10 mg/kg [1]	lethality, Dose 30 mg/kg [1]	lethality, Dose 60 mg/kg [1]
CC1C[N+](=c2nc(N(C)C)ss2)CC(C)O1.[I-] (centres unmarked) [Example 2, 4-(5-dimethylamino-3H-1,2,4-dithiazole-3-ylidene)-2,6-dimethyl-morpholinium iodide]	0%	100	20	0
CN(C)c1nc(=[N+](C)c2ccccc2)ss1.F[B-](F)(F)F [Example 3, N-(5-dimethylamino-3H-1,2,4-dithiazole-3-ylidene)-N-methylanilinium tetrafluoroborate]	0%	80	40	0
CN(C)c1nc(=[N+]2CCOCC2)ss1 [Example 5]	0%	40	0	0
CN1CC[N+](=c2nc(N(C)C)ss2)CC1 [Example 8]	0%	40	0	0
CC(C)[N+](=c1nc(N(C)C)ss1)C(C)C [Example 10]	0%	20	0	0
CN(C)c1nc(=[N+](C)Cc2ccc(Cl)c(Cl)c2)ss1 [Example 43]	0%	20	20	0
CN(C)c1nc(=[N+](C)Cc2ccc(Cl)cc2)ss1 [Example 46]	0%	0	0	0
CN(C)c1nc(=[N+](C)Cc2ccc(Cl)cc2Cl)ss1 [Example 48]	0%	0	0	0
